Molecules are shown by their SMILES.

The test system of assay [1] is SUM159 human breast cancer cells. Put plainly: ALDEFLUOR assay of ALDH positive (cancer stem) cell fraction. It counts as cell-based. The note with it: for percentage of ALDH positive cell population: 100 μM BSO, 1 μM DTPP 24 h, 500 nM AUR 15 min, control 2.61%; for ALDH positive cell population decreased to (relative to control): single agent. As to the method:
FIG. 16: The fraction of Aldehyde dehydrogenase activity positive (ALDH+) cancer cells (also known as early progenitor cancer stem cells) is decreased in SUM159 human breast cancer cells treated with inhibitors of glutathione and thioredoxin metabolism (BSO, AUR, respectively) combined with DTPP. Asynchronously growing cultures of SUM159 were incubated with 100 μM BSO and/or 1 μM DTPP for 24 hours in HMEC media. 500 nM AUR were added into cell culture 15 minutes before the assay. Monolayer cultures were harvested and trypsinized, washed once with PBS and labeled 40 minutes in PBS at 37° C. with BAAA (1 μmol/1 per 1 x 10^6 cells). The negative controls were also added with 50mmol/L diethylaminobenzaldehyde (DEAB). After labeling, Hochest dye for viability assay was added and then kept on ice. Each sample was then analyzed for the ALDH positive cell percentage of 100,000 cells by flow cytometry. Errors represent Mean ±1 SD of 3 samples from two separate experiments […], * p <0.05 as compared to Control.
Estimation of Cancer stem cell fractions using the Aldefluor assay: The ALDEFLUOR kit (StemCell Technologies, Durham, N.C., USA) was used to determine the subpopulation of cancer cells with a high ALDH enzymatic activity. SUM159 human breast cancer cells were plated and treated as described earlier in clonogenic survival experiment. After the exposure, the cells were trypsinized and washed with PBS once then re-suspended in ALDEFLUOR assay buffer containing ALDH substrate (BAAA, 1 μmol/l per 1×10^6 cells) and incubated for 40 minutes at 37° C. As negative control, for each sample of cells an aliquot was treated with 50 mmol/L diethylaminobenzaldehyde (DEAB), a specific ALDH inhibitor. In order to sort out non-viable cells, each sample received 4 μg/ml of Hoechst 33258 (Molecular Probes, Invitrogen). Cells were filtered through […] and kept on ice until analysis. Samples were analyzed by using a Becton Dickinson LSR II with 355 nm, 488 nm, and 633 nm lasers. (Becton Dickinson Immunocytometry System, INC., Mountain View, Calif.). The ALDH positive cells of 100,000 cells were determined by using the sorting gate established with DEAB negative control and Hochest viability control. The ALDH positive cells were represented by percentage of total 100,000 cell events.

A further assay deals with SUM159 cells. Put plainly: MitoSOX red oxidation, SUM159. It counts as cell-based, human. Here is the method:
(§1) FIGS. 4A-4C: MitoSOX oxidation in SUM159, MDA-MB231 and HMECs cells treated with BSO, DTPP and AUR. Asynchronously growing cultures of SUM159 (Panel A) MDA-MB231 (Panel B) and HMECs (Panel C) were plated and treated as described in FIG. 1. Monolayer cultures were harvested and trypsinized, washed once with PBS and labeled 20 minutes with 2 μM MitoSOX (in 0.1% DMSO) in PBS containing 5 mM pyruvate at 37° C. Each sample was then analyzed for the Mean fluorescence Intensity (MFI) of 10,000 cells by flow cytometry. Samples were assayed in triplicate; mean±1 SD of 1 experiment containing 3 treatment dishes per group (n=3), * or ^p<0.001 as compared to Control.
(§2) MitoSOX™ red oxidation to estimate mitochondrial superoxide production: To determine if DTPP can alter steady-state levels of superoxide originating from mitochondria in SUM159, MDA-MB231 and HMEC cells, the cationic superoxide sensitive dye, MitoSOX™red (Molecular Probes), was used. Cells were plated and treated as described earlier in clonogenic survival experiment. After the exposure, cells were trypsinized and washed with 5 mM/L pyruvate containing PBS once then labeled with MitoSOX™red (2 μM, in 0.1% DMSO, 20 minutes) at 37° C. After labeling, cells were kept on ice. Samples were analyzed using a FACScan flowcytometer (Becton Dickinson Immunocytometry System, INC., Mountain View, Calif.) (excitation 488 nm, emission 585 nm band-pass filter). The mean fluorescence intensity of 10,000 cells was analyzed in each sample and corrected for autofluorescence from unlabeled cells. The MFI data was normalized to control levels.

For another assay, the system named is MDA-MB231 cells. In words: MitoSOX red oxidation, MDA-MB231. It counts as cell-based, human. As to the method:
as §1, §2

Another assay has as its system HMECs. Put plainly: MitoSOX red oxidation, HMEC. It counts as cell-based, human. Here is the method: as §1, §2
Assay [2] has as its system Human thioredoxin-1 (hTrx-1). In words: Thioredoxin native redox western blot. It counts as cell-based. The note with it: SUM159. As to the method:
FIG. 7: Human thioredoxin-1 (hTrx-1) native redox western blot analysis of BSO, DTPP and AUR treated SUM159. Asynchronously growing cultures of SUM159 were plated and treated as described in FIG. 1. Cells were harvested and scraped in PBS at 4° C. Whole cell homogenates were used for native gel redox western blot analysis of […].
Thioredoxin Redox Western: The human thioredoxin-1 protein level was determined by Thioredoxin redox western. Approximately 2-3 million treated or untreated SUM159 cells were lysed in G-lysis buffer (50 mM Tris-HCl, pH 8.3, 3 mM EDTA, 6 M guanidine-HCl, 0.5% Triton X-100) containing 50 mM iodoacetic acid (pH 8.3). The lysate was incubated in the dark for thirty minutes. The lysates were then centrifuged in G-25 microspin columns (GE Healthcare). Protein was then quantified, from the eluent by performing a Bradford protein assay, as previously described (Bradford, M. M. A rapid and sensitive method for the quantitation of microgram quantities of protein utilizing the principle of protein-dye binding. Anal Biochem 72:248-254; 1976). Equal amounts of protein were then added to a 15% acrylamide native gel. The gel was then run at 100 V for approximately 1.5 h. The proteins contained in the gel were then transferred to a nitrocellulose membrane (BIORAD Labs), using a semi-dry transfer protocol. The nitrocellose membrane was then washed in PBST (Phosphate buffered saline with 0.1% Tween) before being incubated at 4 overnight with the primary antibody, 1:1000 goat anti-hTrx-1 (American Diagnostica, Inc.) in PBST with 2% BSA. […]
(In general: In western blotting, separated proteins are transferred to a membrane and probed.)

[3] abbreviates: 1 μM DTPP, 100 μM BSO 24 h, 500 nM AUR 15 min.

Consider `CC[PH](CC)(CC)[Au][S][C@@H]1O[C@H](COC(C)=O)[C@@H](OC(C)=O)[C@H](OC(C)=O)[C@H]1OC(C)=O` [AUR, S-triethylphosphinegold(I)-2,3,4,6-tetra-O-acetyl-1-thio-β-D-glucopyranoside], for which, in assay [1], the “percentage of ALDH positive cell population” value was found to be 1.11%. Moreover, the “ALDH positive cell population decreased to (relative to control)” value in assay [1] was “around 50%”. Besides, the “change in MitoSOX oxidation, in words” value is on record as “did not exhibit any change in MitoSOX oxidation” in the assay on SUM159 cells (SUM159), “did not exhibit any change in MitoSOX oxidation” with MDA-MB231 cells and “no effects on MitoSOX oxidation” in the assay on HMECs. Further, the “increase of ratio of oxidized thioredoxin to total thioredoxin compared to control” value in assay [2] was “around 2 fold”. In assay [2] (15 min AUR), the “increase of the ratio of oxidized Trx-1 to reduced Trx-1” value turned out to be 2 fold.

For the molecule `CCCCS(=N)(=O)CCC(N)C(=O)O` [BSO, L-buthionine-[S,R]-sulfoximine, reference compound], in assay [1] (100 μM BSO 24 h), the “effect on ALDH positive cell population, in words” value is “not able to decrease the ALDH positive cell population”. For the same molecule, the “change in MitoSOX oxidation, in words” value was “did not exhibit any change in MitoSOX oxidation” in the assay with SUM159 cells (SUM159), “did not exhibit any change in MitoSOX oxidation” in the assay with MDA-MB231 cells and “no effects on MitoSOX oxidation” in the assay with HMECs. In addition, the “ratio of oxidized thioredoxin to total thioredoxin, in words” value in assay [2] is given as “no ratio change”.

As for `CCCCCCCCCC[P+](c1ccccc1)(c1ccccc1)c1ccccc1` [DTPP, Decyl-Triphenylphosphonium], in assay [1], the “percentage of ALDH positive cell population” value came out at 1.16% and the “ALDH positive cell population decreased to (relative to control)” value is “around 50%”. Moreover, the “increase in MitoSOX red oxidation relative to control” value with SUM159 cells (SUM159, 1 μM DTPP, 100 μM BSO 24 h, 500 nM AUR 15 min) is reported as 9 fold. Also, in the assay on SUM159 cells (SUM159 vs HMEC), the “total amount of mitochondrial O2.- of SUM159 cells relative to HMECs after DTPP” value is 2 fold. Besides, the “increase in MitoSOX red oxidation relative to control” value with MDA-MB231 cells (setting [3]) is listed as 12 fold. Moreover, in the assay with HMECs (setting [3]), the “increase in MitoSOX oxidation” value is 10 fold.

Source of the values: patent publication US9801922B2, “Compositions and methods of treating cancer” (UNIVERSITY OF IOWA RESEARCH FOUNDATION, priority 2011, dated 2017).
